Assay results: US6403639B1, “2,3-dihydrobenzofuran derivatives” (Chugai Seiyaku Kabushiki Kaisha, priority 1997, dated 2002)
Like-named read-outs stand apart in the source and are kept apart here.

Key:
[1] = test system: porcine kidney-derived LLC-PK1 cells; test: Protective effect against cell injury of porcine kidney-derived LLC-PK1 cells (1), oxidized LDL-induced LDH leakage; assay type: cell-based; settings: oxidized LDL 100 μg/ml, 6 hours; for % cytoprotection 1): test compounds added 16 hours before addition of oxidized LDL; for % cytoprotection 2): test compounds added immediately before addition of oxidized LDL
Method: For the purpose of evaluating in vitro cytoprotective effect of the compounds of the present invention, protective effect against cell injury of porcine kidney-derived LLC-PK1 cells (ATCC-CRL-13921) induced by oxidized low-density lipoprotein (oxidized LDL) was examined.
The oxidized LDL was prepared by placing 1 mg/ml of rabbit LDL in PBS (−) in the presence of 10 μM CuSO4 at 37° C. for 24 hours. Cell cultures were prepared by inoculating 1.25×10^4 cells/250 μl/well on a 48-well plate using M199 medium containing 3% FBS. Test compounds were dissolved or suspended in ethanol and added at a ratio of 1.25 μl/well 16 hours before or immediately before addition of the oxidized LDL to a concentration of 0.1, 1 or 10 μM in each well. The oxidized LDL was diluted twice with physiological saline and then added to cells at 62.5 μl/well to a concentration of 100 μg/ml and the cells were incubated for 6 hours after addition of the oxidized LDL. After the incubation, 162.5 μl of the culture medium was collected from each of the wells and measured for the lactate dehydrogenase (LDH) activity (Lactate Dehydrogenase (LD-L): SIGNA DIAGNOSTICS) which has leaked into the culture medium.
(§1) The cytoprotective effect was expressed as a % cytoprotection where the effect in wells containing the oxidized LDL but without any test compound is 0% and the effect in wells containing physiological saline in place of the oxidized LDL is 100%.

cultured mesangial cells = test: Protective effect against cell injury of cultured mesangial cells, oxidized LDL-induced LDH leakage; assay type: cell-based, rats
Method: For the purpose of evaluating in vitro cytoprotective effect of the compounds of the present invention, protective effect against cell injury of cultured mesangial cells induced by oxidized low-density lipoprotein (LDL) was examined. The cells used were subcultures after 4 to 6 passages of the primary cultures of mesangial cells prepared from kidney of 4-week-old SD-strain male rats (Nippon Charles River Corp.).
The oxidized LDL was prepared by placing 1 mg/ml of rabbit LDL in PBS (−) in the presence of 10 μM CuSO4 at 37° C. for 24 hours. Cell cultures were prepared by inoculating 2.5×10^4 cells/250 μl/well on a 48-well plate using RPMI1640 medium containing 20% FBS. Immediately before addition of test compounds, the medium was replaced with RPMI1640 free from FBS. Test compounds were dissolved or suspended in ethanol and added at 1.25 μl/well 16 hours before or immediately before addition of the oxidized LDL to a concentration of 1, 3 or 10 μM in each well. Unlike Test example 1, the oxidized LDL was not diluted with physiological saline and added to cells at 25 μl/well to a concentration of 91 μg/ml and the cells were incubated for 8 hours after addition of the oxidized LDL. After the incubation, 150 μl of the culture medium was collected from each of the wells and measured for the lactate dehydrogenase activity (Lactate Dehydrogenase (LD-L): SIGMA DIAGNOSTICS) which has leaked in the culture medium.
as §1

[2] = Rattus norvegicus, Mesangial cell; 1 μM; test compounds added 16 hours before addition of oxidized LDL; oxidized LDL 91 μg/ml, 8 hours; read-out: % cytoprotection 1)
[3] = Rattus norvegicus, Mesangial cell; 1 μM; test compounds added immediately before addition of oxidized LDL; oxidized LDL 91 μg/ml, 8 hours; read-out: % cytoprotection 2)
[4] = Rattus norvegicus, Mesangial cell; 3 μM; test compounds added 16 hours before addition of oxidized LDL; oxidized LDL 91 μg/ml, 8 hours; read-out: % cytoprotection 1)
[5] = Rattus norvegicus, Mesangial cell; 3 μM; test compounds added immediately before addition of oxidized LDL; oxidized LDL 91 μg/ml, 8 hours; read-out: % cytoprotection 2)

CC(C)(C)c1cc(O)c(C(C)(C)C)c2c1OCC2 [Example 1, 4,7-Di-t-butyl-5-hydroxy-2,3-dihydrobenzofuran]
% cytoprotection 1) ([1]; 0.1 μM): 92.7% | % cytoprotection 2) ([1]; 0.1 μM): 17.5% | % cytoprotection 1) ([1]; 1 μM): 104.1% | % cytoprotection 2) ([1]; 1 μM): 103.9% | % cytoprotection 1) ([1]; 10 μM): 100.5% | % cytoprotection 2) ([1]; 10 μM): 102.3% | inhibition at 1 µM (cultured mesangial cells; [2]): 24.2 ± 9.3% | inhibition at 1 µM (cultured mesangial cells; [3]): 40.3 ± 3.2% | inhibition at 3 µM (cultured mesangial cells; [4]): 78.2 ± 13.4% | inhibition at 3 µM (cultured mesangial cells; [5]): 69.7 ± 13.3%

CC1Cc2c(c(C(C)(C)C)cc(O)c2C(C)(C)C)O1 (stereo not drawn) [Example 2, 4,7-Di-t-butyl-5-hydroxy-2-methyl-2,3-dihydrobenzofuran]
% cytoprotection 1) ([1]; 0.1 μM): 24.4% | % cytoprotection 2) ([1]; 0.1 μM): 27.1% | % cytoprotection 1) ([1]; 1 μM): 101.2% | % cytoprotection 2) ([1]; 1 μM): 101.5% | % cytoprotection 1) ([1]; 10 μM): 101.0% | % cytoprotection 2) ([1]; 10 μM): 99.9% | inhibition at 1 µM (cultured mesangial cells; [2]): 35.6 ± 7.5% | inhibition at 1 µM (cultured mesangial cells; [3]): 40.6 ± 8.2% | inhibition at 3 µM (cultured mesangial cells; [4]): 60.5 ± 6.2% | inhibition at 3 µM (cultured mesangial cells; [5]): 53.1 ± 5.7%

CC1(C)Cc2cc(O)c(C(C)(C)C)cc2O1 [Example 5, 6-t-Butyl-5-hydroxy-2,2-dimethyl-2,3-dihydrobenzofuran]
% cytoprotection 1) ([1]; 0.1 μM): 77.6% | % cytoprotection 2) ([1]; 0.1 μM): 18.2% | % cytoprotection 1) ([1]; 1 μM): 103.4% | % cytoprotection 2) ([1]; 1 μM): 100.8% | % cytoprotection 1) ([1]; 10 μM): 100.6% | % cytoprotection 2) ([1]; 10 μM): 101.7% | inhibition at 1 µM (cultured mesangial cells; [2]): 34.2 ± 4.5% | inhibition at 1 µM (cultured mesangial cells; [3]): 11.3 ± 2.4% | inhibition at 3 µM (cultured mesangial cells; [4]): 42.3 ± 4.7% | inhibition at 3 µM (cultured mesangial cells; [5]): 28.9 ± 2%
